Assay results taken from patent US10456465B2, “Compositions, kits, and methods for the diagnosis prognosis, monitoring, treatment and modulation of post-transplant lymphoproliferative disorders and hypoxia associated angiogenesis disorders using galectin-1” (Dana-Farber Cancer Institute, Inc., priority 2009, dated 2019).

What was measured:
[1] = test system: EBV-specific CD8+ T cells; experiment: rGal1-induced killing of EBV-specific CTLs; type: cell-based, human; conditions: rGal1 alone, 1.25, 2.5 or 5 μM; 4 h; 7AAD
Experimental: After informed consent, 40-60 ml of peripheral blood from healthy donors was used to generate both EBV-transformed LCLs and EBV-specific CTLs (Straathof et al. (2005) Blood 105:1898-904). In brief, 5×10^6 peripheral blood mononuclear cells (PBMCs) were incubated with concentrated culture supernatant from the marmoset B-lymphoblastoid cell line, B95-8, in the presence of 1 μg/ml cyclosporin A (Sandoz, Vienna, Austria) to establish a LCL. Subsequently, PBMCs (2×10^6 per well of a 24-well plate) were stimulated with irradiated LCLs (at 4,000 rads) at an effector-stimulator (E/S) ratio of 40:1. After 10 days, viable cells were restimulated with irradiated LCLs (at 4:1 E/S ratio). CTLs were expanded by weekly stimulations with autologous irradiated LCLs (at 4:1 E/S ratio) in the presence of recombinant human interleukin-2 (rhIL-2, Proleukin; Chiron Emeryville, Calif.) at concentration of 40 U/ml. After 5 cycles of stimulation, CTLs were tested for EBV specificity and cryopreserved. […]
CTLs were thawed in AIM-V media (Invitrogen) containing 10 U/ml of DNAse I (Roche Applied Science, Indianapolis, Ind.) and rested in culture overnight. […] After 4 hours, the viability of EBV-specific CD8^+ T cells was measured using 7AAD and APC-Cy7-labelled CD8 (BD Biosciences, San Jose, Calif.).

HUVEC = HUVEC invasion (BioCoat Angiogenesis system); type: cell-based, human; conditions: HUVEC treated with Gal1
Experimental: HUVEC transfected or not with specific siRNA or pre-incubated with signaling pathway inhibitors were exposed to VEGF or Gal1 with or without lactose, sucrose, 8F4F8G7 mAb or control isotype (IgG1κ) or specific antibodies for VEGFR1 (AP-MAB0702; Abcam), VEGFR2 (AF357; R&D), VEGFR3 (AB89501; Abcam) or VEGF (MAB293; R&D). Cells were processed for proliferation, migration, invasion and tube formation assays. Tumor-associated blood vessels were identified by flow cytometry using Alexa Fluor 647-conjugated anti-CD34 antibody (RAM34; eBioscience).
Invasion assays were performed using the BioCoat Angiogenesis system (BD Biosciences) following manufacturer's recommendations. For assessment of in vivo angiogenesis, growth factor-reduced Matrigel (BD Biosciences) was mixed with Gal1 (0.1 or 3 μM) with or without lactose (30 mM). In another set of experiments, serum-free CM from KS cells infected or not with a retroviral vector expressing Gal1 shRNA and cultured under hypoxic or normoxic conditions, were added to unpolymerized Matrigel and injected subcutaneously into the flanks of either wild-type or Lgals1^−/− (B6) mice or nude mice using a cold syringe. Matrigel embedded with buffer alone was used as negative control and a cocktail containing VEGF (50 ng/ml), heparin (50 U/ml) and TNF (2 ng/ml) was used as positive control. […]

mice (Matrigel plugs) = experiment: In vivo vascularization of Matrigel sponges; parameters: species or system mouse; conditions: Gal1 0.1 or 3 μM; 6 days; hemoglobin content
Experimental: Invasion assays were performed using the BioCoat Angiogenesis system (BD Biosciences) following manufacturer's recommendations. For assessment of in vivo angiogenesis, growth factor-reduced Matrigel (BD Biosciences) was mixed with Gal1 (0.1 or 3 μM) with or without lactose (30 mM). In another set of experiments, serum-free CM from KS cells infected or not with a retroviral vector expressing Gal1 shRNA and cultured under hypoxic or normoxic conditions, were added to unpolymerized Matrigel and injected subcutaneously into the flanks of either wild-type or Lgals1^−/− (B6) mice or nude mice using a cold syringe. Matrigel embedded with buffer alone was used as negative control and a cocktail containing VEGF (50 ng/ml), heparin (50 U/ml) and TNF (2 ng/ml) was used as positive control. After 6 days, Matrigel plugs were collected by surgery, photographed and weighed. Samples were minced and diluted in water to measure hemoglobin content using the Drabkin reagent kit (Sigma). Each sample was normalized to 100 mg of recovered gel and confronted with a standard curve of mouse blood hemoglobin.

Gal3 = biological target: T1, Gal3 (Homo sapiens, UniProt P17931); experiment: Binding of 488-Gal3 to HUVEC; conditions: 488-Gal3 20 μg/ml, mAb 0.5 μM
T1 construct: made in house
T1 sequence (P17931 whole entry, species assumed): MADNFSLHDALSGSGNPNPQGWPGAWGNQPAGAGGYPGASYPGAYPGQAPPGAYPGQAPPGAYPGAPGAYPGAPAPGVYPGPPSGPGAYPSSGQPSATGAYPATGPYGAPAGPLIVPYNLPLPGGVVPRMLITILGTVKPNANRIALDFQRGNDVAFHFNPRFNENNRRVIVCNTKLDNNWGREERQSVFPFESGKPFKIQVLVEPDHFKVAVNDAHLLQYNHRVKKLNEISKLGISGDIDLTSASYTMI
Experimental: For glycophenotyping, ECs were incubated with biotinylated L-PHA, LEL, SNA, MAL II, PNA and HPA (all from Vector). Recombinant Gal1 was purified as described in Ilarregui et al. (2009) Nat Immunol 10, 981-991. For binding assays, ECs were incubated for 1 h at 4° C. with dyLight 488-labeled galectins in the absence or presence of lactose, sucrose, anti-Gal1 or isotype control mAb or following transfection with GnT5, GCNT1 or scrambled siRNA. Cells were analyzed on a FACSAria (BD Biosciences). For segregation, ECs were treated with Gal1 for 1 h, fixed and incubated for 1 h with anti-human VEGFR2 antibody (55B11; Cell Signaling) as described in Ilarregui et al. (2009) Nat Immunol 10, 981-991. Cells were analyzed on a Nikon laser confocal microscope (Eclipse E800).
DyLight 488-conjugated Gal1 (488-Gal1) was obtained using DyLight labeling kit (Thermo Scientific). Inhibitors of Jak2-STAT3 (AG490; 5 μM), Jnk-SAP (SP600125; 20 μM), p38 (SB202190; 10 μM), HIF-1α (3 μM) and O-glycosylation (benzyl-α-Ga1NAc; 2 mM) were from Calbiochem. Inhibitors of Erk1/2 (U0126; 5 μM), PI(3)K-Akt (Ly294002; 2 μM) and NF-κB (BAY 11-7082; 1 μM), ROS (N-acetyl-cysteine; NAC), N-glycosylation (swainsonine; 3 μM), lactose or sucrose (30 mM) were from Sigma. PNGase F (25 U/μg protein) was from New England Biolabs. […]

Row | Molecule | apoptosis of EBV-specific CD8+ T cells [1] | EC invasion (HUVEC) | vascularization of Matrigel sponges containing recombinant Gal1 (mice (Matrigel plugs)) | effect on binding of Gal3 to the EC surface (Gal3)
1 | rGal1: recombinant human galectin-1 | induced massive apoptosis | elicited | rapidly became vascularized | 
2 | anti-Gal1 monoclonal antibody 8F4F8G7 (antibody, V domains shown, Murine hybridoma mAb (deposit PTA-10535), lambda light chain; also called 14-19 8F4-F8-G7; clone 8F4.8F.67) VH: EVQLQQSVAEFVRPGASVRLSCTASGFNIKNTYIHWVRQRPEQGLEWIGKIDPANGNTKYVPEFQGKATMTADTSSNTVYLHLSSLTSEDTAIYYCVDGYYGWYFAVWGTGTTVTVSS VL: QAVVTQESALTTSPGETVTLTCRSSTGAVTTSNYANWVQEKPDHLFTGLIGATNNRAPGVPARFSGSLIGDKAVLTITGAQTEDEAIYFCALWYRNHFIFGSGTKVTVL |  |  |  | did not interfere
